Reference: article PMC11992225, “Antibacterial compounds against non-growing and intracellular bacteria” (npj Antimicrobials and Resistance, 2025)
Where “and” joins values, the source holds several entries; their conditions need not be identical. Equal values may be shown once.

Tests used:
[1] = tested on: non-growing S. aureus DSM2569; experiment: Dose-dependent killing analysis (CFU spot-plating) of stationary-phase S. aureus;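 as to average Δlog10(CFU/ml) (killing): drug concentration in µM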; format: cell-based, Staphylococcus aureus; details: S. aureus; for average Δlog10(CFU/ml) (killing) / Killing: average Δlog10(CFU/ml): vs 9,097 before treatment
Experimental: To determine the spectrum of activity of the compounds that were effective against non-growing UPEC, we further assessed their efficacy against the well-characterized Gram-negative and Gram-positive reference strains P. aeruginosa DSM1117 and S. aureus DSM2569, respectively. The cultures were grown and treated for 24 h in 1:4 CA-MHB (pH 7.4). […].
For survival analysis, bacteria were cultivated as described for the dose–response dilution-regrowth assay. Assays with UPEC were conducted at the CBCS screening facility using 96-well plates with a 200 μl sample volume, and compounds were dispensed using the Echo® (Labcyte) system. P. aeruginosa and S. aureus samples were treated according to the protocol used for the dilution-regrowth experiments. Treated samples were serially diluted 10-fold in PBS, and 10 μl drops were spot-plated onto rectangular LB agar plates using either a Beckman NXP robot (for UPEC) or an Integra VIAFLO96 electronic pipette (for P. aeruginosa and S. aureus). The LB agar plates were incubated overnight at 37 °C and scanned. Colonies were counted at the spots of the lowest dilution where individual colonies could be accurately distinguished. Each colony was manually marked on a separate image layer using the GNU Image Manipulation Program, and counted using NIST’s Integrated Colony Enumerator (NICE 1.4) software. The experiments were performed in three biological replicates.

[2] = tested on: intracellular S. flexneri 5a M90T in TC7 cells; experiment: microbe, parasite or virus in culture; format: cell-based, Shigella flexneri
non-growing UPEC CFT073 = experiment: Dose-dependent killing analysis (CFU spot-plating) of stationary-phase UPEC; format: cell-based, Escherichia coli
How it was run: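 Non-growing (stationary-phase) UPEC CFT073 treated with compounds in 96-well format at 200 μl, then 10-fold serially diluted in PBS and 10 μl spots plated on LB agar. Plates incubated overnight at 37 °C; colonies counted at lowest resolvable dilution to give CFU. Three biological replicates.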

[3] = TC7 cells infected with GFP-expressing S. flexneri, 14 h treatment

## CN1CCN(c2cc3c(cc2F)c(=O)c(C(=O)O)cn3-c2ccc(F)cc2)CC1 [Difloxacin]
[1]; drug conc 0.1
  average Δlog10(CFU/ml) (killing): 0.032 log10(CFU/ml)
[1]; drug conc 0.5
  average Δlog10(CFU/ml) (killing): 0.171 log10(CFU/ml)
[1]; drug conc 2.5
  average Δlog10(CFU/ml) (killing): 0.107 log10(CFU/ml)
[1]; drug conc 10
  average Δlog10(CFU/ml) (killing): 0.435 log10(CFU/ml)
[2]; Shigella flexneri, TC7, 14 h
  IC50: 0.183 µM
[2]; [3]
  Fluorescence intensity (RFU), Mean, 0.25 x MIC: 8915.25 RFU
  Fluorescence intensity (RFU), Mean, 0.5 x MIC: 8126.42 RFU
  Fluorescence intensity (RFU), Mean, 2 x MIC: 3233.81 RFU
  Fluorescence intensity (RFU), Mean, 4 x MIC: 2824.97 RFU
  Fluorescence intensity (RFU), Mean, 8 x MIC: 2319.67 RFU
  Fluorescence intensity (RFU), Mean, 16 x MIC: 1827.36 RFU
  Fluorescence intensity (RFU), Mean, MIC: 3866.17 RFU
[2]; TC7 cells infected with GFP-expressing S. flexneri, 14 h treatment, 32 x MIC
  Fluorescence intensity (RFU), Mean, 32 x MIC: 1634.92 RFU

## CO[C@H]1/C=C/O[C@@]2(C)Oc3c(C)c(O)c4c(O)c(c(/C=N/N=C/N5CCCCC5)c(O)c4c3C2=O)NC(=O)/C(C)=C\C=C\[C@H](C)[C@H](O)[C@@H](C)[C@@H](O)[C@@H](C)[C@H](OC(C)=O)[C@@H]1C [FCE-22250]
non-growing UPEC CFT073; E. coli in 1:4 CA-MHB (pH 7.4), concentration 0.25
  log10(CFU/ml) after treatment, single replicates: 9.301 log10(CFU/ml) and 8.845 log10(CFU/ml) and 8.602 log10(CFU/ml)
non-growing UPEC CFT073; E. coli in 1:4 CA-MHB (pH 7.4), concentration 0.25, vs 8.977 before treatment
  Killing: average Δlog10(CFU/ml): 0.061 log10(CFU/ml)
non-growing UPEC CFT073; E. coli in 1:4 CA-MHB (pH 7.4), concentration 0.5
  log10(CFU/ml) after treatment, single replicates: 9.505 log10(CFU/ml) and 9.176 log10(CFU/ml) and 8.301 log10(CFU/ml)
non-growing UPEC CFT073; E. coli in 1:4 CA-MHB (pH 7.4), concentration 0.5, vs 8.977 before treatment
  Killing: average Δlog10(CFU/ml): -0.017 log10(CFU/ml)
non-growing UPEC CFT073; E. coli in 1:4 CA-MHB (pH 7.4), concentration 1
  log10(CFU/ml) after treatment, single replicates: 9.556 log10(CFU/ml) and 9.114 log10(CFU/ml) and 8.431 log10(CFU/ml)
non-growing UPEC CFT073; E. coli in 1:4 CA-MHB (pH 7.4), concentration 1, vs 8.977 before treatment
  Killing: average Δlog10(CFU/ml): -0.057 log10(CFU/ml)
non-growing UPEC CFT073; E. coli in 1:4 CA-MHB (pH 7.4), concentration 2.5
  log10(CFU/ml) after treatment, single replicates: 9.415 log10(CFU/ml) and 8.954 log10(CFU/ml) and 8.342 log10(CFU/ml)
non-growing UPEC CFT073; E. coli in 1:4 CA-MHB (pH 7.4), concentration 2.5, vs 8.977 before treatment
  Killing: average Δlog10(CFU/ml): 0.073 log10(CFU/ml)
non-growing UPEC CFT073; E. coli in 1:4 CA-MHB (pH 7.4), concentration 5
  log10(CFU/ml) after treatment, single replicates: 9.477 log10(CFU/ml) and 8.903 log10(CFU/ml) and 8.431 log10(CFU/ml)
non-growing UPEC CFT073; E. coli in 1:4 CA-MHB (pH 7.4), concentration 5, vs 8.977 before treatment
  Killing: average Δlog10(CFU/ml): 0.040 log10(CFU/ml)
non-growing UPEC CFT073; E. coli in 1:4 CA-MHB (pH 7.4), concentration 10
  log10(CFU/ml) after treatment, single replicates: 9.519 log10(CFU/ml) and 8.845 log10(CFU/ml) and 8.778 log10(CFU/ml)
non-growing UPEC CFT073; E. coli in 1:4 CA-MHB (pH 7.4), concentration 10, vs 8.977 before treatment
  Killing: average Δlog10(CFU/ml): -0.070 log10(CFU/ml)
non-growing UPEC CFT073; E. coli in LPM (pH 5.5), concentration 0.25
  log10(CFU/ml) after treatment, single replicates: 7.041 log10(CFU/ml) and 7.176 log10(CFU/ml) and 8.079 log10(CFU/ml)
non-growing UPEC CFT073; E. coli in LPM (pH 5.5), concentration 0.25, vs 7.350 before treatment
  Killing: average Δlog10(CFU/ml): -0.082 log10(CFU/ml)
non-growing UPEC CFT073; E. coli in LPM (pH 5.5), concentration 0.5
  log10(CFU/ml) after treatment, single replicates: 6.845 log10(CFU/ml) and 6.778 log10(CFU/ml) and 8.000 log10(CFU/ml)
non-growing UPEC CFT073; E. coli in LPM (pH 5.5), concentration 0.5, vs 7.350 before treatment
  Killing: average Δlog10(CFU/ml): 0.143 log10(CFU/ml)
non-growing UPEC CFT073; E. coli in LPM (pH 5.5), concentration 1
  log10(CFU/ml) after treatment, single replicates: 7.176 log10(CFU/ml) and 7.255 log10(CFU/ml) and 8.000 log10(CFU/ml)
non-growing UPEC CFT073; E. coli in LPM (pH 5.5), concentration 1, vs 7.350 before treatment
  Killing: average Δlog10(CFU/ml): -0.127 log10(CFU/ml)
non-growing UPEC CFT073; E. coli in LPM (pH 5.5), concentration 2.5
  log10(CFU/ml) after treatment, single replicates: 6.845 log10(CFU/ml) and 6.954 log10(CFU/ml) and 7.845 log10(CFU/ml)
non-growing UPEC CFT073; E. coli in LPM (pH 5.5), concentration 2.5, vs 7.350 before treatment
  Killing: average Δlog10(CFU/ml): 0.136 log10(CFU/ml)
non-growing UPEC CFT073; E. coli in LPM (pH 5.5), concentration 5
  log10(CFU/ml) after treatment, single replicates: 6.778 log10(CFU/ml) and 6.845 log10(CFU/ml) and 7.785 log10(CFU/ml)
non-growing UPEC CFT073; E. coli in LPM (pH 5.5), concentration 5, vs 7.350 before treatment
  Killing: average Δlog10(CFU/ml): 0.214 log10(CFU/ml)
non-growing UPEC CFT073; E. coli in LPM (pH 5.5), concentration 10
  log10(CFU/ml) after treatment, single replicates: 6.954 log10(CFU/ml) (2×) and 7.531 log10(CFU/ml)
non-growing UPEC CFT073; E. coli in LPM (pH 5.5), concentration 10, vs 7.350 before treatment
  Killing: average Δlog10(CFU/ml): 0.204 log10(CFU/ml)
[1]; concentration 0.1
  log10(CFU/ml) after treatment, single replicates: 9.505 log10(CFU/ml) and 8.903 log10(CFU/ml) and 9.033 log10(CFU/ml)
  Killing: average Δlog10(CFU/ml): -0.050 log10(CFU/ml)
[1]; concentration 0.5
  log10(CFU/ml) after treatment, single replicates: 9.107 log10(CFU/ml) and 9.017 log10(CFU/ml) and 8.505 log10(CFU/ml)
  Killing: average Δlog10(CFU/ml): 0.221 log10(CFU/ml)
[1]; concentration 2.5
  log10(CFU/ml) after treatment, single replicates: 8.929 log10(CFU/ml) and 8.940 log10(CFU/ml) and 8.806 log10(CFU/ml)
  Killing: average Δlog10(CFU/ml): 0.205 log10(CFU/ml)
[1]; concentration 10
  log10(CFU/ml) after treatment, single replicates: 8.973 log10(CFU/ml) and 9.017 log10(CFU/ml) and 8.944 log10(CFU/ml)
  Killing: average Δlog10(CFU/ml): 0.119 log10(CFU/ml)
[2]; TC7 cells infected with GFP-expressing S. flexneri, 14 h treatment, 0.0625 x MIC
  Fluorescence intensity (RFU), Mean, 0.0625 x MIC: 8508.25 RFU
[2]; TC7 cells infected with GFP-expressing S. flexneri, 14 h treatment, 0.125 x MIC
  Fluorescence intensity (RFU), Mean, 0.125 x MIC: 9069.58 RFU
[2]; [3]
  Fluorescence intensity (RFU), Mean, 0.25 x MIC: 2896.5 RFU
  Fluorescence intensity (RFU), Mean, 0.5 x MIC: 1857.94 RFU
  Fluorescence intensity (RFU), Mean, 2 x MIC: 1320.58 RFU
  Fluorescence intensity (RFU), Mean, 4 x MIC: 1217.94 RFU
  Fluorescence intensity (RFU), Mean, 8 x MIC: 1111.33 RFU
  Fluorescence intensity (RFU), Mean, 16 x MIC: 979.361 RFU
  Fluorescence intensity (RFU), Mean, MIC: 1487.86 RFU
